Data published in patent publication US20230149374A1, “METHODS AND COMPOSITIONS FOR TREATING ATHEROSCLEROSIS” (Sanford Burnham Prebys Medical Discovery Institute, priority 2021, published 2023).
“Also recorded” adds a separate entry of the source.

Test system: ApoE-deficient mice
Test: NMR metabolomics of liver and kidney extracts
Assay type: in vivo, mouse
Conditions: 30 mg/kg/day, vs control
Description: Four cohorts of mice were used in these studies (FIGS. 8A and 9A). Cohorts 1 and 2 were devoted to the in vivo and ex vivo characterization of TNAP-associated plaque calcification. 6-week-old ApoE-deficient male mice were received at the animal facility and placed in conventional cages with 5 mice per cage. Mice were maintained on a 12-hrs light-dark cycle (7:00 am-7:00 pm) and were supplied with food and water ad libitum. From 10 weeks of age, they were fed ad libitum with a high fat diet (HFD, D12108C, Research Diets, New Brunswick, USA) containing 40% fat (kcal) and 1.25% cholesterol (weight). In cohort 1, 8 mice were sacrificed every 2 weeks between weeks 17 to 31, for histological and molecular analyses. Total body weight was measured weekly after starting the HFD. The sacrifice was done after anesthesia with isoflurane and intracardiac blood puncture by CO2 inhalation. Tissues were harvested as described below. The abdominal aorta was used for quantitative polymerase chain reaction (PCR) analyses. Mice from cohort 2 were used to analyze aorta calcification with ^18F—NaF μPET and μCT and to compare the in vivo data with the ex vivo results obtained in cohort 1. Animals were transferred from the animal facility to the Cermep imaging platform. Cohorts 3 and 4 were used to determine in vivo and ex vivo the impact of TNAP inhibition on the vasculature, liver, bones, and kidneys. […] Plaque calcification was analyzed at 25 weeks, and possible side effects of TNAP inhibition were explored in mice aged 31 weeks. […]
Liver and kidney extraction and NMR measurement: The frozen tissues were weighed and then extracted using the methanol-chloroform-water system [2:2:1.425 (v/v/v)]. […] Deuterated phosphate buffer at pH=7.4 (200 mM) was added to the dried aqueous extract with sodium 2,2,3,3-tetradeutero-3-trimethylsilylpropionate (TSP) (Sigma-Aldrich) as internal chemical shift and quantification reference. ^1H NMR spectra were recorded at 298 K on a Bruker Avance spectrometer 500 equipped with a 5-mm TCI cryoprobe. […]

Q: Which results are given for `COc1ccc(Cl)cc1S(=O)(=O)Nc1cncc(C(N)=O)c1` [SBI-425]?
A: kidney phosphocholine levels (25 weeks): increased; liver phosphocholine levels (25 weeks): decreased; also recorded: variations close to significance; liver or kidney metabolism (metabolomics, PLS-DA): did not evidence a significant impact; also recorded: did not significantly change
